Experimental data: patent publication US10422791B2, “Haptens and conjugates derived from pyocyanin, antibodies thereof, and immunochemical method for detecting infections caused by Pseudomonas aeruginosa” (priority 2013, dated 2019)

Tests used:
As230 antiserum = test: Cross-reactivity determinations in the indirect competitive ELISA As230/PC1-BSA (AE); type: binding, New Zealand white rabbits; conditions: for % RC (cross-reactivity): (IC50 1-hydroxyphenazine/IC50 phenazine compound)x100; for IC50: calibration curves in PBST, coating antigen PC1-BSA (AE), antiserum As230
Method: The MALDI-TOF-MS mass spectrometer (mass spectrometer with laser assisted by ionization/desorption matrix with flight time) which it uses to characterize the conjugates of protein was a Bruker 200-Hz SmartBeam (Bruker-Daltonics, Leipzig, Germany). The detection was performed in the positive ion mode, ionized with a laser power set at 70% of the maximum laser intensity of the instrument at a frequency of 10-100 Hz. The pH and the conductivity of all the buffers and solutions was measured with a 540 GLP phMeter and a LF 340 conductivity meter, respectively (WTW, Weilheim, Germany). The polystyrene microtiter plates were from Nunc (Maxisorp, Roskilde, Denmark). The washing steps were carried out using a microplate washer (ELx405 HT (BioTek, Vinooski, Vt., USA)). The absorbencies were read in a SpectramaxPlus (Molecular Devices, Sunnyvale, Calif.) in a wavelength mode of 450 nm. The competition curves were analysed with a four-parameter equation using the SoftmaxPro v4.7 (Molecular Devices) and GraphPad Prism v 4 (GraphPad Software Inc, San Diego, Calif.) software. The standard curve was adjusted to a logistical equation of four parameters according to the formula y=(A−B/[1−(x/C)D])+B, where A is the maximum absorbance, B is the minimum absorbance, C is the concentration which produces 50% of the difference between the maximum and minimum absorbance (or IC50), and D is the gradient in the point of inflection of the sigmoidal curve. Unless indicated otherwise, the data shown correspond to the mean of at least two replicates.
The polyclonal antiserums As230, As231 and As232 were obtained by the immunization of New Zealand white rabbits (female) with weights around 1-2 kg with PC1-HCH (MA) following a protocol already described by Ballesteros et al. (Analytica Chimica Acta 1997, 347, 139). The evolution of the titers of antibodies was assessed by measuring the binding of serial solutions of each antiserum to microtiter plates coated with the homologous BSA conjugate. Once acceptable titers of antibodies are obtained, the animals were exsanguinated and the blood was collected in Vacutainer tubes provided with serum separation gel. The antiserums were obtained by centrifugation and were stored at −80° C. in the presence of 0.02% NaN3.
The microtiter plates were coated with PC1-BSA (AE) (0.125 μg/ml with coating buffer 100 μL/well) during 4 h at 25° C. with adhesive sealants. Then, the plates were washed four times with PBST (300 μL/well) before adding the standards (1-hydroxyphenazine or another type of related analytes, at different concentrations from 1000 nM to 0 nM in PBhST), and the samples at different concentrations (50 μl/well), followed by the As230 antiserum solution (1/8000 dilution in PBhST, 50 μl/well). After 30 min at ambient temperature, the plates were washed a further nine times with PBST and the anti-IgG-HRP solution was added (1/6000 in PBST, 100 μl/well). After 30 min of incubation at ambient temperature, the microplates were again washed four times with PBST and the substrate solution was added (100 μl/well) and the enzyme reaction was stopped after 30 min at ambient temperature by H2SO4 4 N (50 μl/well). The absorbencies were measured at 450 nm. The standard curve was adjusted to a logistical equation of four parameters according to the formula y=(A−B/[1−(x/C) D])+B, where A is the maximum absorbance, B is the minimum absorbance, C is the concentration that produces 50% of the difference between the maximum absorbance and minimum absorbance of the absorbance (or IC50), and D is gradient in the point of inflection of the sigmoidal curve. The limit of detection (LOD) is defined as the concentration which gives 90% response of the maximum absorbance (IC90) (see FIG. 1 and table 1).
Stock solutions were prepared of different compounds structurally related with pyocyanin and 1-hydroxyphenazine (10 mM in dimethyl sulfoxide) and they were stored at 4° C. […]

[1] = Conversion of pyocyanin into 1-hydroxyphenazine by NaOH, controlled by HPLC-UV; type: physicochemical; conditions: 1 M NaOH, 20 min at a.t., phenazine as internal standard
Method: A 2M NaOH solution (250 μL) was added to a vial containing pyocyanin (10 mM, 25 μL) in 10 mM PBS (85 μL), previously spiked with phenazine (500 μM, 140 μL). The progress of the reaction was monitored by extracting aliquots (10 μL) from the reaction solution at various time intervals, diluting them with 250 mM PBS (90 μL) and adding 1 M HCl (10 μL) to neutralize the pH.
Therefore, it was necessary to develop a simple method to convert pyocyanin in 1-hydroxyphenazine with a good yield. This could be achieved by treating pyocyanin solutions with 1 M NaOH during 20 min at a.t. […] As shown in FIG. 2 (bottom), a good correlation was observed (R^2=0.943) between the sample measurements and the spiked samples for the detection of pyocyanin once hydrolyzed.

Row | Structure (SMILES) | % RC (cross-reactivity) (As230 antiserum) | IC50 (As230 antiserum) | % RC (cross-reactivity) (As230 antiserum; listed as pyocyanin) | conversion of pyocyanin in 1-hydroxyphenazine (hydrolysis of the methyl group) [1]
1 | O=C(O)c1ccc2nc3ccccc3nc2c1 [Phenazine-2-carboxylic acid] | <0.1% | > 800 nM | – | –
2 | c1ccc2nc3ccccc3nc2c1 [Phenazine] | <0.1% | > 800 nM | – | –
3 | Cn1c2cccc(=O)c-2nc2ccccc21 [Pyocyanin, pyocyanin] | <0.1% | > 800 nM | less than 0.1% | quantitative
4 | COS(=O)(=O)[O-].C[n+]1c2ccccc2nc2ccccc21 [Methyl 5-methylphenazine sulfate] | 0.4% | 140 nM | – | –
5 | Oc1cccc2nc3ccccc3nc12 [1-hydroxyphenazine] | 100% | 0.62 nM | – | –
